How the values were obtained:
[1] = Population pharmacokinetic analysis of upadacitinib plasma concentrations; type: in vivo, human; details: for Cmax: C max; for Cmax / concentration at 24 h / C avg: model-estimated, 15 mg once daily, median (5th to 95th percentile); for concentration at 24 h: C trough
[2] = cited from earlier work
cytochrome P450 (CYP) 3A = details: cited from earlier work
CYP2D6 = details: cited from earlier work
[3] = human, plasma, oral, 15 mg, patients with RA in phase III trials (N = 1592)
[4] = human, plasma, oral, 15 mg, patients with nr-axSpA (N = 71)

Vd/F ([1]; human, plasma, oral, 15 mg): 171 L | Cmax [1, 3]: 41.1 ng/mL | Cmax [1, 4]: 37.3 ng/mL | concentration at 24 h ([1]; human, plasma, oral, 15 mg, patients with AS (N = 173)): 3.71 ng/mL | concentration at 24 h [1, 3]: 3.72 ng/mL | concentration at 24 h [1, 4]: 4.58 ng/mL | C avg ([1]; patients with AS (N = 173)): 14.5 (9.78, 25.9) ng/mL | C avg ([1]; patients with RA in phase III trials (N = 1592)): 14.9 (9.74, 29.2) ng/mL | C avg ([1]; patients with nr-axSpA (N = 71)): 14.8 (10.5, 25.5) ng/mL
Compound: CC[C@@H]1CN(C(=O)NCC(F)(F)F)C[C@@H]1c1cnc2cnc3[nH]ccc3n12 [upadacitinib]
dose linearity of pharmacokinetics ([2]; 7.5 to 45 mg q.d. dose range): linear pharmacokinetics | apparent volume of distribution of the central compartment (population estimate) ([2]; previously developed RA model): 156 L | substrate for cytochrome P450 (CYP) 3A (cytochrome P450 (CYP) 3A): substrate | substrate for CYP2D6 (CYP2D6): to a minor extent

— article PMC10859787 (Clinical and Translational Science, 2024)
